# Data taken from article PMC3694332 (Biopharmaceutics & drug disposition, 2009).
# Like-named read-outs stand apart in the source and are kept apart here.
# Tests used:
# [1] = tested on: MRP2; conditions: cited from earlier work
# [2] = tested on: MRP1; conditions: cited from earlier work
# [3] = tested on: P-gp; conditions: verapamil or PSC833; Caco-2, MCF-7/ADR, MDA435/LCC6, MDA435/LCC6MDR1 cells; cited from earlier work
# [4] = tested on: P-gp; conditions: cited from earlier work; for investigated as substrate (S)/inhibitor (I): 8226/Dox, P-gp
# [5] = rat, in vivo, cited from earlier work
# [6] = tested on: MRP1; conditions: Panc-1 cells, 100 μM isothiocyanate, 2 h; cited from earlier work
# [7] = human, in vivo; cited from earlier work
# [8] = tested on: CaCo2 cell monolayers; conditions: cited from earlier work
# [9] = tested on: cellular GSH levels; conditions: 100 μM, 2 h incubation; cited from earlier work
# [10] = tested on: P-gp; conditions: MCF7/ADR cells, 100 μM isothiocyanate, 2 h; cited from earlier work
# [11] = tested on: BCRP; conditions: FTC 10 μM, 25 μM PEITC; cited from earlier work
# [12] = tested on: BCRP; conditions: NHI-H460/MX20, BCRP; cited from earlier work
# [13] = rats; cited from earlier work
# [14] = tested on: MRP1; conditions: cited from earlier work; remark: listed apart in the source
# [15] = rats, cited from earlier work
# [16] = cited from earlier work
# [17] = Effect of BITC co-administration on topotecan pharmacokinetics; conditions: Sprague-Dawley, rat, plasma
smiles,measurement,setting,value
"S=C=NCCc1ccccc1 [PEITC, phenethyl isothiocyanate]",increase of intracellular 14C accumulation by MK571,"[1]; 50 μM MK571, PEITC 1 μM",2.5 fold
same,increase of intracellular 14C accumulation by MK571,"[1]; 50 μM MK571, PEITC 5 μM",3.5 fold
same,increase of intracellular 14C accumulation by MK571,"[1]; 50 μM MK571, PEITC 10 μM",4.5 fold
same,increase of intracellular 14C accumulation by MK571,"[1]; 50 μM MK571, PEITC 50 μM",1.8 fold
same,intracellular 14C lower in MDCK/MRP2 than in wild type MDCKII cells,[1]; PEITC 1 μM,55%
same,intracellular 14C lower in MDCK/MRP2 than in wild type MDCKII cells,[1]; PEITC 5 μM,14%
same,intracellular 14C lower in MDCK/MRP2 than in wild type MDCKII cells,[1]; PEITC 10 μM,12%
same,intracellular 14C lower in MDCK/MRP2 than in wild type MDCKII cells,[1]; PEITC 50 μM,61%
same,change of 14C tracer accumulation by MK571,"[2]; 100 μM MK571, higher PEITC concentrations",did not change
same,increase of 14C tracer accumulation by MK571,"[2]; 2 h co-incubation with 100 μM MK571, PEITC 1 μM",6.8 fold
same,increase of 14C tracer accumulation by MK571,"[2]; 2 h co-incubation with 100 μM MK571, PEITC 5 μM",5.9 fold
same,increase of 14C tracer accumulation by MK571,"[2]; 2 h co-incubation with 100 μM MK571, PEITC 20 μM",1.9 fold
same,accumulation of 14C-PEITC in absence and presence of P-gp inhibitor,[3],not changed
same,investigated as substrate (S)/inhibitor (I),[4],Phenethyl isothiocyanate (S)
same,clearance,[5]; 2 umol/kg,11.6 mL/min/kg
same,Half-life,"[5]; iv, 66 mg/kg",13.1 h (i.v.)
same,Cmax,"[5]; po, 16.3 mg/kg",42.1 µM
same,Tmax,"[5]; po, 16.3 mg/kg",2.0 h
same,oral bioavailability,[5]; po,high
same,Nonlinear pharmacokinetics,[5],Yes
same,increase in accumulation of vinblastine,[6],2 fold
same,CL/F,[7],29.5 L/h
same,Cmax,[7],0.928 µM
same,Half-life,[7],4.9 h
same,Tmax,[7],2.6 h
same,increase in accumulation of daunomycin,[8],1.85 fold
same,"GSH, % of control values in untreated cells",[9],10±3.5 % of control
same,decrease of cellular GSH levels,[9],decreased
same,increase in accumulation of vinblastine,[10],not
same,decrease of ATP-dependent accumulation of PEITC in inside-out vesicles by FTC,[11],1.7 fold
same,investigated as substrate (S)/inhibitor (I),[12],Phenethyl isothiocyanate (S)
"S=C=Nc1cccc2ccccc12 [NITC, α-naphthyl isothiocyanate]",decrease of cellular GSH levels,[9],not
same,Nonlinear pharmacokinetics,[13],Yes
"S=C=NCc1ccccc1 [BITC, benzyl isothiocyanate]",increase in accumulation of daunomycin,[8],1.75 fold
same,"GSH, % of control values in untreated cells",[9],15.3±6.4 % of control
same,decrease of cellular GSH levels,[9],decreased
C=CCN=C=S [Allyl isothiocyanate],investigated as substrate (S)/inhibitor (I),"[14]; HL60/AR, MRP1",Allyl isothiocyanate (S)
"C[S+]([O-])CCCCN=C=S (stereo not drawn) [Sulforaphane, sulforaphane]",Cmax,"[15]; 50 μmol oral (Table 1: 88.5 mg oral), plasma",20 µM
same,Half-life,[15]; 50 μmol oral (Table 1: 88.5 mg oral),2.23 h
same,Half-life,"[15]; 50 μmol oral (Table 1: 88.5 mg oral), listed as sulforaphane",about 2.2 h
same,Tmax,[15]; 88.5 mg oral,4 h
same,investigated as substrate (S)/inhibitor (I),[4],Sulforaphane (S)
same,accumulation of intracellular sulforaphane with inhibitors of P-gp,[4]; P-gp over-expressing cells,increased
same,accumulation of intracellular sulforaphane with inhibitors of MRP1,[14]; MRP1 over-expressing cells,increased
CC[C@@]1(O)C(=O)OCc2c1cc1n(c2=O)Cc2cc3c(CNC)c(O)ccc3nc2-1 [N-desmethyl topotecan],percent of N-desmethyl topotecan formed,[16]; in the plasma,less than 0.7%
same,percent of N-desmethyl topotecan formed,[16]; in the urine,1–4%
CC[C@@]1(O)C(=O)OCc2c1cc1n(c2=O)Cc2cc3c(CN(C)C)c(O)ccc3nc2-1 [topotecan],AUC(0-inf),"[17]; iv, 1 mg/kg, AUC0–∞, i.v. administration of 1 mg/kg topotecan, four rats",707 ng·h/mL
same,AUC(0-t),"[17]; po, 2 mg/kg, AUC0–720 min, topotecan alone (2 mg/kg dose)",182 ng·h/mL
